In test [1] the target is T1, glycine-binding site of the NMDA receptor channel (Rattus norvegicus, UniProt P35439).
T1 construct: from tissue; host or cells: rat brain cortex and hippocampus membrane homogenate (male Wistar)
Briefly: Receptor binding (glycine-binding site of the NMDA receptor channel), displacement of (3H)-MDL 105.519. As for the experimental part:
Receptor Binding (Glycine-Binding Site of the NMDA Receptor Channel)
The investigation for determining the affinity of the compounds according to the invention of the formula I towards the glycine-binding site of the NMDA receptor channel was performed on brain membrane homogenates (homogenate of the cortex and hippocampus area from male rat brain, Wistar strain) [B. M. Baron, B. W. Siegel, B. L. Harrison, R. S. Gross, C. Hawes and P. Towers, Journal of Pharmacology and Experimental Therapeutics, vol. 279, p. 62, 1996].
To this end, the cortex and hippocampus were dissected out of freshly harvested rat brains and homogenized with ice cooling in 5 mmol/l of TRIS-acetate buffer, 0.32 mol/l of sucrose, pH 7.4 (10 ml/g fresh weight) using a Potter homogenizer (Braun/Melsungen, 10 piston strokes at 500 rpm) and then centrifuged for 10 minutes at 1,000 g and 4° C. […] This membrane homogenate was used in the receptor binding test in a quantity of 100 μl per 1 ml batch (0.1 mg of protein/ml in the final batch). […] The level of non-specific binding was determined in the presence of 1 mmol/l of glycine.
In further batches, the compounds according to the invention were added in concentration series and the displacement of the radioactive ligand from its specific binding at the glycine-binding site of the NMDA receptor channel was determined. […]

For test [2], the system named is formaldehyde-induced nociception. In words: Formaldehyde test, rat (second phase). It counts as in vivo. The following applies: iv, male Sprague-Dawley rats, second (late) phase of formaldehyde test, pain rate vs vehicle control. As for the experimental part: The investigations to determine the antinociceptive action of the compounds according to the invention of the formula I were carried by the formaldehyde test on male rats (Sprague-Dawley, 150–170 g). In the formaldehyde test, a distinction is drawn between the first (early) phase (0–15 min after formaldehyde injection) and the second (later) phase (15–60 min after formaldehyde injection) (D. Dubuisson, S. G. Dennis, Pain 4, 161–174 (1977)). […]
A nociceptive reaction was induced in the freely mobile test animals by a single, subcutaneous formaldehyde injection (50 μl, 5%) into the dorsal side of the rear hind paw, the reaction being classed according to one of the following behavioral parameters: lifting and holding up the affected paw (score 1), shaking or twitching (score 2), licking and biting (score 3). The differential behavior induced by the formaldehyde injection was recorded by observing the animals in the late phase of the formaldehyde test and assigned a variable weighting in the evaluation. Normal behavior, in which the animal places an even load on all four paws, was recorded as a score of 0. […] The nociceptive behavior was calculated as a “pain rate” (PR). […] On the basis of the calculated PR values, the effect of the substance was determined as a percentage change relative to the control. […]

One compound from patent publication US7199130B2, “Substituted 5,6,6a, 11b-tetrahydro-7-oxa-5-aza-benzo[c]fluorene-6-carboxylic acid compounds as NMDA-antagonists” (Gruenenthal GmbH, priority 2001, dated 2007) can be followed below.

As a reminder, the Ki is a measure of affinity in units of concentration, obtained from inhibition or displacement. By ED50 is commonly meant the dose that gives a 50% effect, or the effect in half of the subjects. A lower ED50 goes with an effect at a small dose.

As to `O=C(O)C1Nc2cc(Cl)cc(Cl)c2C2c3ccccc3OC12` (stereo not drawn) [Example 1, 1,3-Dichloro-5,6,6a,11b-tetrahydro-7-oxa-5-aza-benzo [c]fluorene-6-carboxylic acid], the “Glycine-binding site of the NMDA receptor channel Displacement” value in test [1] (10 μmol/l of substance, displacement of (3H)-MDL 105.519 from specific binding, rat brain membranes) is 100%. The Ki in test [1] (rat cortex and hippocampus membrane homogenate, ligand 1 nmol/l (3H)-MDL 105.519, converted from IC50 by Cheng-Prussoff, mean of three independent tests) was determined as 53 nM. The same compound showed an ED50 in test [2] of 7.27 mg/kg.
